Experimental data from ChEMBL document CHEMBL3244265, “Preparation and biological actions of some symmetrically N,N-disubstituted dopamines” (J Med Chem, 1978).
Activity calls are given as the source filed them. The rule behind the calls is not given here.

What was measured:
Rattus norvegicus [1] = experiment: Induction of hyperactivity in Sprague-Dawley rat administered into caudate putamen in presence of 0.2 to 0.8 mg/kg haloperidol; type: functional, organism-based
Felis catus [2] = species: Felis catus; experiment: Agonist activity at dopamine receptor in cat right atrium assessed as inhibition of cardiaccelerator nerve stimulation rate by cardiotachometer analysis; type: tissue-based; details: Cardiac atrium
Felis catus [3] = experiment: Inhibition of 10 Hz electric current-induced cardioaccelerator nerve stimulation in iv dosed cat by cardiotachometer analysis; type: functional, organism-based
Rattus norvegicus [4] = experiment: Induction of hyperactivity in Sprague-Dawley rat at 40 mg/kg, sc pretreated for 30 mins with 5 mg/kg propranolol; type: functional, organism-based
Canis familiaris [5] = experiment: Induction of emesis in sc dosed dog; type: functional; details: Canis lupus familiaris
Rattus norvegicus [6] = experiment: Induction of circling behaviour in sc dosed Sprague-Dawley rat in presence of 0.8 mg/kg haloperidol; type: functional, organism-based; design: dose 0.8 mg/kg
Rattus norvegicus [7] = experiment: Induction of stereotyped behaviour in Sprague-Dawley rat administered into nucleus accumbens in presence of 0.2 to 0.8 mg/kg haloperidol; type: functional, organism-based
Rattus norvegicus [8] = experiment: Induction of circling behaviour in sc dosed Sprague-Dawley rat assessed as duration of action; type: functional
Rattus norvegicus [9] = experiment: Induction of stereotyped behaviour in sc dosed Sprague-Dawley rat pretreated for 30 mins with 0.4 mg/kg haloperidol; type: functional, organism-based; design: dose 0.4 mg/kg
Rattus norvegicus [10] = experiment: Induction of hyperactivity in Sprague-Dawley rat administered into nucleus accumbens in presence of 0.2 to 0.8 mg/kg haloperidol; type: functional, organism-based
Felis catus [11] = experiment: Effect on heart rate in iv dosed cat; type: functional, organism-based
Rattus norvegicus [12] = experiment: Effect on motor function in Sprague-Dawley rat administered into caudate putamen; type: functional, organism-based
Columba livia [13] = experiment: Antagonism of apomorphine-induced pecking in im dosed pigeon treated 15 mins prior to apomorphine challenge; type: functional
Felis catus [14] = experiment: Hypotensive activity in iv dosed cat; type: functional, organism-based
Felis catus [15] = experiment: Hypotensive activity in iv dosed cat in presence of haloperidol; type: functional, organism-based
Rattus norvegicus [16] = experiment: Induction of circling behaviour in Sprague-Dawley rat administered into nucleus accumbens in presence of haloperidol; type: functional, organism-based
Rattus norvegicus [17] = experiment: Induction of hyperactivity in Sprague-Dawley rat at 40 mg/kg, sc pretreated for 18 hrs with 5 mg/kg reserpine and 6 hrs with 250 mg/kg alpha-methyl-p-tyrosine; type: functional, organism-based
Rattus norvegicus [18] = experiment: Induction of stereotyped behaviour in sc dosed Sprague-Dawley rat assessed as onset of action; type: functional
Rattus norvegicus [19] = experiment: Induction of stereotyped behaviour in sc dosed Sprague-Dawley rat assessed as duration of action; type: functional
Rattus norvegicus [20] = experiment: Induction of hyperactivity in Sprague-Dawley rat at 40 mg/kg, sc pretreated for 30 mins with 0.4 mg/kg haloperidol; type: functional, organism-based
Felis catus [21] = experiment: Inhibition of 2 Hz electric current-induced cardioaccelerator nerve stimulation in iv dosed cat by cardiotachometer analysis; type: functional
Rattus norvegicus [22] = experiment: Induction of circling behaviour in sc dosed Sprague-Dawley rat assessed as onset of action; type: functional
Rattus norvegicus [23] = experiment: Induction of stereotyped behaviour in Sprague-Dawley rat administered into caudate putamen in presence of 0.2 to 0.8 mg/kg haloperidol; type: functional, organism-based
Rattus norvegicus [24] = experiment: Induction of hyperactivity in Sprague-Dawley rat at 40 mg/kg, sc; type: functional, organism-based; design: dose 40 mg/kg
Rattus norvegicus [25] = experiment: Induction of circling behaviour in Sprague-Dawley rat administered into caudate putamen in presence of haloperidol; type: functional, organism-based
Rattus norvegicus [26] = experiment: Induction of hyperactivity in Sprague-Dawley rat at 40 mg/kg, sc pretreated for 30 mins with 5 mg/kg aceperone; type: functional, organism-based
Rattus norvegicus [27] = experiment: Induction of stereotyped behaviour in sc dosed Sprague-Dawley rat; type: functional, organism-based
Felis catus [28] = experiment: Inhibition of 2 Hz electric current-induced cardioaccelerator nerve stimulation in iv dosed cat by cardiotachometer analysis in presence of 2 mg/kg, iv phentolamine; type: functional, organism-based; design: dose 2 mg/kg; details: at 2 mg/kg
Columba livia [29] = experiment: Induction of pecking in im dosed pigeon; type: functional, organism-based
Felis catus [30] = experiment: Inhibition of 2 Hz electric current-induced cardioaccelerator nerve stimulation in iv dosed cat by cardiotachometer analysis in presence of 0.2 mg/kg, iv haloperidol; type: functional, organism-based; design: dose 0.2 mg/kg; details: at 0.2 mg/kg
Canis familiaris [31] = experiment: Toxicity in dog up to 2 mg/kg, sc; type: organism-based, Canis lupus familiaris; design: dose 2 mg/kg, route subcutaneous; details: in vivo
Rattus norvegicus [32] = experiment: Induction of hyperactivity in Sprague-Dawley rat at 3.13 to 50 ug administered into caudate putamen; type: functional, organism-based
Rattus norvegicus [33] = experiment: Induction of circling behaviour in Sprague-Dawley rat at 2.5 to 20 mg/kg, sc; type: functional, organism-based
Rattus norvegicus [34] = experiment: Induction of stereotyped behaviour in Sprague-Dawley rat at 2.5 to 20 mg/kg, sc; type: functional, organism-based
Rattus norvegicus [35] = experiment: Induction of stereotyped behaviour in intrastriatally dosed Sprague-Dawley rat at 3.13 to 50 ug administered into caudate putamen; type: functional, organism-based
Canis familiaris [36] = species: Canis familiaris; experiment: Inhibition of cardioaccelerator nerve stimulation in dog in presence of phentolamine; type: functional, organism-based; details: Canis lupus familiaris
Canis familiaris [37] = experiment: Antagonism of apomorphine-induced emesis in sc dosed dog treated 15 mins prior to apomorphine challenge; type: functional, organism-based; details: Canis lupus familiaris
Rattus norvegicus [38] = experiment: Induction of stereotyped behaviour in intrastriatally dosed Sprague-Dawley rat at 3.13 to 50 ug administered into nucleus accumbens; type: functional, organism-based
Rattus norvegicus [39] = experiment: Induction of hyperactivity in Sprague-Dawley rat at 3.13 to 50 ug administered into nucleus accumbens; type: functional, organism-based
Rattus norvegicus [40] = experiment: Induction of hyperactivity in Sprague-Dawley rat at 2.5 to 20 mg/kg, sc; type: functional, organism-based
Felis catus [41] = species: Felis catus; experiment: Agonist activity at dopamine receptor in cat right atrium assessed as inhibition of cardiaccelerator nerve stimulation rate at 10 umol/L by cardiotachometer analysis; type: tissue-based; details: Cardiac atrium
Felis catus [42] = experiment: Inhibition of 2 Hz electric current-induced cardioaccelerator nerve stimulation in cat at 10 umol/kg, iv by cardiotachometer analysis; type: functional, organism-based

Structure (SMILES) | ED50 (Felis catus [2]) | inhibition (Felis catus [3]) | ED50 (Canis familiaris [5]) | Activity (Felis catus [11]) | ED50 (Columba livia [13]) | Activity (Felis catus [14]) | ED50 (Felis catus [21]) | inhibition (Felis catus [28]) | Activity (Columba livia [29]) | inhibition (Felis catus [30]) | Activity (Rattus norvegicus [32]) | Activity (Rattus norvegicus [33]) | Activity (Rattus norvegicus [34]) | Activity (Rattus norvegicus [35]) | Activity (Rattus norvegicus [38]) | Activity (Rattus norvegicus [39]) | Activity (Rattus norvegicus [40]) | further results
CCCN(CCC)CCc1ccc(O)c(O)c1 | 0.42 µM | inactive | 1 mg/kg | inactive | 56 µmol/kg | Active | 0.068 µmol/kg | Active | inactive | inactive |  |  |  |  |  |  |  | Activity (Rattus norvegicus [1]): inactive; Activity (Rattus norvegicus [4]): Active; Activity (Rattus norvegicus [6]): inactive; Activity (Rattus norvegicus [7]): inactive; Time (Rattus norvegicus [8]): 5 min; Activity (Rattus norvegicus [9]): inactive; Activity (Rattus norvegicus [10]): inactive; Activity (Rattus norvegicus [12]): inactive; Activity (Felis catus [15]): inactive; Activity (Rattus norvegicus [16]): inactive; Activity (Rattus norvegicus [17]): Active; Time (Rattus norvegicus [18]): <5 min; Time (Rattus norvegicus [19]): 10 min; Activity (Rattus norvegicus [20]): inactive; Time (Rattus norvegicus [22]): 3 min; Activity (Rattus norvegicus [23]): inactive; Activity (Rattus norvegicus [24]): Active; Activity (Rattus norvegicus [25]): inactive; Activity (Rattus norvegicus [26]): Active; Activity (Rattus norvegicus [27]): Dose-dependent effect
CN(C)CCc1ccc(O)c(O)c1 | 0.07 µM | inactive | inactive | inactive | 9.7 µmol/kg |  | 0.024 µmol/kg | inactive | inactive | inactive | inactive | inactive | inactive | inactive | inactive | inactive | inactive | Activity (Canis familiaris [31]): Non-toxic; inhibition (Canis familiaris [36]): inactive; inhibition (Canis familiaris [37]): inactive
CCCCN(CCCC)CCc1ccc(O)c(O)c1 |  | inactive |  | inactive |  | inactive |  |  | inactive |  | inactive | inactive | inactive | inactive | inactive | inactive | inactive | inhibition (Felis catus [41]): inactive; inhibition (Felis catus [42]): inactive
